Measurements published in ChEMBL document CHEMBL1139986, “Synthesis and biodistribution of 8-iodo-11-(4-methylpiperazino)-5H-dibenzo[b,e][1,4]-diazepine: Iozapine” (Bioorg Med Chem Lett, 2007).

Assays:
[1] = tested on: Mus musculus; assay: Biodistribution in BALB/c mouse lower body at 7 to 8 KBq, iv after 15 mins; assay type: ADME, organism-based; settings: in vivo, 0.25 h
[2] = tested on: Mus musculus; assay: Biodistribution in BALB/c mouse upper body at 7 to 8 KBq, iv after 120 mins; assay type: ADME, organism-based; settings: in vivo, 2 h
[3] = tested on: Pancreas; assay: Biodistribution in BALB/c mouse pancreas at 7 to 8 KBq, iv after 5 mins; assay type: ADME, organism-based; settings: in vivo
[4] = tested on: Lung; assay: Biodistribution in BALB/c mouse lung at 7 to 8 KBq, iv after 60 mins; assay type: ADME, organism-based; settings: in vivo, 1 h
[5] = tested on: Blood; assay: Biodistribution in BALB/c mouse blood at 7 to 8 KBq, iv after 15 mins; assay type: ADME, organism-based; settings: in vivo, 0.25 h
[6] = tested on: Cerebellum; assay: Biodistribution in BALB/c mouse cerebellum at 7 to 8 KBq, iv after 15 mins; assay type: ADME, organism-based; settings: in vivo, 0.25 h
[7] = tested on: Mus musculus; assay: Biodistribution in BALB/c mouse upper body at 7 to 8 KBq, iv after 5 mins; assay type: ADME, organism-based; settings: in vivo
[8] = tested on: Stomach; assay: Biodistribution in BALB/c mouse stomach at 7 to 8 KBq, iv after 60 mins; assay type: ADME, organism-based; settings: in vivo, 1 h
[9] = tested on: Kidney; assay: Biodistribution in BALB/c mouse kidney at 7 to 8 KBq, iv after 60 mins; assay type: ADME, organism-based; settings: in vivo, 1 h
[10] = tested on: Pancreas; assay: Biodistribution in BALB/c mouse pancreas at 7 to 8 KBq, iv after 120 mins; assay type: ADME, organism-based; settings: in vivo, 2 h
[11] = tested on: Medulla; assay: Biodistribution in BALB/c mouse medulla at 7 to 8 KBq, iv after 120 mins; assay type: ADME, organism-based, Medulla of organ; settings: in vivo, 2 h
[12] = tested on: Mus musculus; assay: Biodistribution in BALB/c mouse lower body at 7 to 8 KBq, iv after 60 mins; assay type: ADME, organism-based; settings: in vivo, 1 h
[13] = tested on: Pancreas; assay: Biodistribution in BALB/c mouse pancreas at 7 to 8 KBq, iv after 15 mins; assay type: ADME, organism-based; settings: in vivo, 0.25 h
[14] = tested on: Cortex; assay: Biodistribution in BALB/c mouse cortex at 7 to 8 KBq, iv after 5 mins; assay type: ADME, organism-based; settings: in vivo
[15] = tested on: Thyroid gland; assay: Biodistribution in BALB/c mouse thyroid at 7 to 8 KBq, iv after 15 mins; assay type: ADME, organism-based; settings: in vivo, 0.25 h
[16] = tested on: Heart; assay: Biodistribution in BALB/c mouse heart at 7 to 8 KBq, iv after 120 mins; assay type: ADME, organism-based; settings: in vivo, 2 h
[17] = tested on: Cortex; assay: Biodistribution in BALB/c mouse cortex at 7 to 8 KBq, iv after 60 mins; assay type: ADME, organism-based; settings: in vivo, 1 h
[18] = tested on: Blood; assay: Biodistribution in BALB/c mouse blood at 7 to 8 KBq, iv after 60 mins; assay type: ADME, organism-based; settings: in vivo, 1 h
[19] = tested on: Cortex; assay: Biodistribution in BALB/c mouse cortex at 7 to 8 KBq, iv after 120 mins; assay type: ADME, organism-based; settings: in vivo, 2 h
[20] = tested on: Liver; assay: Biodistribution in BALB/c mouse liver at 7 to 8 KBq, iv after 5 mins; assay type: ADME, organism-based; settings: in vivo
[21] = tested on: Striatum; assay: Biodistribution in BALB/c mouse striatum at 7 to 8 KBq, iv after 5 mins; assay type: ADME, organism-based; settings: in vivo
[22] = tested on: Intestine; assay: Biodistribution in BALB/c mouse intestine at 7 to 8 KBq, iv after 5 mins; assay type: ADME, organism-based; settings: in vivo
[23] = tested on: Spleen; assay: Biodistribution in BALB/c mouse spleen at 7 to 8 KBq, iv after 120 mins; assay type: ADME, organism-based; settings: in vivo, 2 h
[24] = tested on: Intestine; assay: Biodistribution in BALB/c mouse intestine at 7 to 8 KBq, iv after 60 mins; assay type: ADME, organism-based; settings: in vivo, 1 h
[25] = tested on: Thyroid gland; assay: Biodistribution in BALB/c mouse thyroid at 7 to 8 KBq, iv after 5 mins; assay type: ADME, organism-based; settings: in vivo
[26] = tested on: Pancreas; assay: Biodistribution in BALB/c mouse pancreas at 7 to 8 KBq, iv after 60 mins; assay type: ADME, organism-based; settings: in vivo, 1 h
[27] = tested on: Cerebellum; assay: Biodistribution in BALB/c mouse cerebellum at 7 to 8 KBq, iv after 120 mins; assay type: ADME, organism-based; settings: in vivo, 2 h
[28] = tested on: Spleen; assay: Biodistribution in BALB/c mouse spleen at 7 to 8 KBq, iv after 5 mins; assay type: ADME, organism-based; settings: in vivo
[29] = tested on: Thyroid gland; assay: Biodistribution in BALB/c mouse thyroid at 7 to 8 KBq, iv after 60 mins; assay type: ADME, organism-based; settings: in vivo, 1 h
[30] = tested on: Brain; assay: Biodistribution in BALB/c mouse brain at 7 to 8 KBq, iv after 5 mins; assay type: ADME, organism-based; settings: in vivo
[31] = tested on: Hippocampus; assay: Biodistribution in BALB/c mouse hippocampus at 7 to 8 KBq, iv after 60 mins; assay type: ADME, organism-based; settings: in vivo, 1 h
[32] = tested on: Thalamus; assay: Biodistribution in BALB/c mouse thalamus at 7 to 8 KBq, iv after 60 mins; assay type: ADME, organism-based; settings: in vivo, 1 h
[33] = tested on: Lung; assay: Biodistribution in BALB/c mouse lung at 7 to 8 KBq, iv after 5 mins; assay type: ADME, organism-based; settings: in vivo
[34] = tested on: Blood; assay: Biodistribution in BALB/c mouse blood at 7 to 8 KBq, iv after 120 mins; assay type: ADME, organism-based; settings: in vivo, 2 h
[35] = tested on: Mus musculus; assay: Biodistribution in BALB/c mouse lower body at 7 to 8 KBq, iv after 5 mins; assay type: ADME, organism-based; settings: in vivo
[36] = tested on: Medulla; assay: Biodistribution in BALB/c mouse medulla at 7 to 8 KBq, iv after 15 mins; assay type: ADME, organism-based, Medulla of organ; settings: in vivo, 0.25 h
[37] = tested on: Lung; assay: Biodistribution in BALB/c mouse lung at 7 to 8 KBq, iv after 15 mins; assay type: ADME, organism-based; settings: in vivo, 0.25 h
[38] = tested on: Thalamus; assay: Biodistribution in BALB/c mouse thalamus at 7 to 8 KBq, iv after 5 mins; assay type: ADME, organism-based; settings: in vivo
[39] = tested on: Blood; assay: Biodistribution in BALB/c mouse blood at 7 to 8 KBq, iv after 5 mins; assay type: ADME, organism-based; settings: in vivo
[40] = tested on: Heart; assay: Biodistribution in BALB/c mouse heart at 7 to 8 KBq, iv after 15 mins; assay type: ADME, organism-based; settings: in vivo, 0.25 h
[41] = tested on: Brain; assay: Biodistribution in BALB/c mouse brain at 7 to 8 KBq, iv after 15 mins; assay type: ADME, organism-based; settings: in vivo, 0.25 h
[42] = tested on: Thyroid gland; assay: Biodistribution in BALB/c mouse thyroid at 7 to 8 KBq, iv after 120 mins; assay type: ADME, organism-based; settings: in vivo, 2 h
[43] = tested on: Stomach; assay: Biodistribution in BALB/c mouse stomach at 7 to 8 KBq, iv after 15 mins; assay type: ADME, organism-based; settings: in vivo, 0.25 h
[44] = tested on: Stomach; assay: Biodistribution in BALB/c mouse stomach at 7 to 8 KBq, iv after 5 mins; assay type: ADME, organism-based; settings: in vivo
[45] = tested on: Mus musculus; assay: Biodistribution in BALB/c mouse upper body at 7 to 8 KBq, iv after 60 mins; assay type: ADME, organism-based; settings: in vivo, 1 h
[46] = tested on: Lung; assay: Biodistribution in BALB/c mouse lung at 7 to 8 KBq, iv after 120 mins; assay type: ADME, organism-based; settings: in vivo, 2 h
[47] = tested on: Thalamus; assay: Biodistribution in BALB/c mouse thalamus at 7 to 8 KBq, iv after 120 mins; assay type: ADME, organism-based; settings: in vivo, 2 h
[48] = tested on: Brain; assay: Biodistribution in BALB/c mouse brain at 7 to 8 KBq, iv after 60 mins; assay type: ADME, organism-based; settings: in vivo, 1 h
[49] = tested on: Spleen; assay: Biodistribution in BALB/c mouse spleen at 7 to 8 KBq, iv after 15 mins; assay type: ADME, organism-based; settings: in vivo, 0.25 h
[50] = tested on: Striatum; assay: Biodistribution in BALB/c mouse striatum at 7 to 8 KBq, iv after 60 mins; assay type: ADME, organism-based; settings: in vivo, 1 h
[51] = tested on: Liver; assay: Biodistribution in BALB/c mouse liver at 7 to 8 KBq, iv after 60 mins; assay type: ADME, organism-based; settings: in vivo, 1 h
[52] = tested on: Liver; assay: Biodistribution in BALB/c mouse liver at 7 to 8 KBq, iv after 15 mins; assay type: ADME, organism-based; settings: in vivo, 0.25 h
[53] = tested on: Kidney; assay: Biodistribution in BALB/c mouse kidney at 7 to 8 KBq, iv after 120 mins; assay type: ADME, organism-based; settings: in vivo, 2 h
[54] = tested on: Kidney; assay: Biodistribution in BALB/c mouse kidney at 7 to 8 KBq, iv after 15 mins; assay type: ADME, organism-based; settings: in vivo, 0.25 h
[55] = tested on: Hippocampus; assay: Biodistribution in BALB/c mouse hippocampus at 7 to 8 KBq, iv after 15 mins; assay type: ADME, organism-based; settings: in vivo, 0.25 h
[56] = tested on: Brain; assay: Biodistribution in BALB/c mouse brain at 7 to 8 KBq, iv after 120 mins; assay type: ADME, organism-based; settings: in vivo, 2 h

Structure (SMILES): CN1CCN(C2=Nc3cc([125I])ccc3Nc3ccccc32)CC1 [[125I]I-OZAPINE]
- Drug uptake [1]: 15.02 %ID
- Drug uptake [2]: 5.72 %ID
- Drug uptake [3]: 1.41 %ID
- Drug uptake [4]: 0.5 %ID
- Drug uptake [5]: 3.31 %ID
- Drug uptake [6]: 4.71 %ID
- Drug uptake [7]: 23.3 %ID
- Drug uptake [8]: 7.35 %ID
- Drug uptake [9]: 2.15 %ID
- Drug uptake [10]: 0.16 %ID
- Drug uptake [11]: 0.16 %ID
- Drug uptake [12]: 10.24 %ID
- Drug uptake [13]: 1.02 %ID
- Drug uptake [14]: 7.22 %ID
- Drug uptake [15]: 0.13 %ID
- Drug uptake [16]: 0.05 %ID
- Drug uptake [17]: 2.05 %ID
- Drug uptake [18]: 3.49 %ID
- Drug uptake [19]: 0.22 %ID
- Drug uptake [20]: 11.12 %ID
- Drug uptake [21]: 7.28 %ID
- Drug uptake [22]: 9.16 %ID
- Drug uptake [23]: 0.04 %ID
- Drug uptake [24]: 35.19 %ID
- Drug uptake [25]: 0 %ID
- Drug uptake [26]: 0.34 %ID
- Drug uptake [27]: 0.12 %ID
- Drug uptake [28]: 0.37 %ID
- Drug uptake [29]: 0.68 %ID
- Drug uptake [30]: 3.49 %ID
- Drug uptake [31]: 2.52 %ID
- Drug uptake [32]: 1.56 %ID
- Drug uptake [33]: 4.01 %ID
- Drug uptake [34]: 1.77 %ID
- Drug uptake [35]: 18.94 %ID
- Drug uptake [36]: 5.23 %ID
- Drug uptake [37]: 1.6 %ID
- Drug uptake [38]: 7.82 %ID
- Drug uptake [39]: 4.17 %ID
- Drug uptake [40]: 0.28 %ID
- Drug uptake [41]: 2.79 %ID
- Drug uptake [42]: 1.3 %ID
- Drug uptake [43]: 3.56 %ID
- Drug uptake [44]: 1.77 %ID
- Drug uptake [45]: 11.54 %ID
- Drug uptake [46]: 0.17 %ID
- Drug uptake [47]: 0.2 %ID
- Drug uptake [48]: 0.8 %ID
- Drug uptake [49]: 0.31 %ID
- Drug uptake [50]: 2.11 %ID
- Drug uptake [51]: 12.03 %ID
- Drug uptake [52]: 10.38 %ID
- Drug uptake [53]: 1.19 %ID
- Drug uptake [54]: 4.41 %ID
- Drug uptake [55]: 6.64 %ID
- Drug uptake [56]: 0.1 %ID
